Where two headings read alike, the source gives them in different places.
Experiments:
E. coli = experiment: Survival rate of cells in 3.5% artificial seawater: E. coli; assay type: cell-based, Escherichia coli
Experimental: (§1) For comparison, 500 ppm of sodium bisulfite was added in place of sulfuric acid, and the data obtained are also shown in Table 1.

[1] = test system: suspension of a solid deposit on a reverse osmosis membrane having been used in seawater desalination; experiment: Survival rate of cells in 3.5% artificial seawater: suspension of deposit on membrane; assay type: cell-based
Experimental: as §1

[2] = test system: un-identified bacteria as separated from the solid deposit suspension; experiment: Survival rate of cells in 3.5% artificial seawater: cells from deposit on membrane; assay type: cell-based
Experimental: as §1

marine bacteria = experiment: Colonies formed on agar medium for marine bacteria from treated seawater mixture; assay type: cell-based; details: 200 ppm of sulfuric acid, pH 2.8, for 2 hours at 20° C.; 0.1 ml plated on agar pH 7; untreated pH 8.5 gave 200
Experimental: 1% of seawater was added to commercially-available, 3.5% artificial seawater having been subjected to pressure disinfection (at 120° C. for 15 minutes), and the pH of the resulting seawater mixture was measured to be 8.5. After having been kept at 20° C. for 2 hours, 0.1 ml of the seawater mixture was applied onto an agar medium for marine bacteria, of which the pH value had been controlled to be 7, and then kept warmed at 20° C.
The pH of the resulting seawater mixture was 2.8. After having been kept at 20° C. for 2 hours, 0.1 ml of the seawater mixture was applied onto an agar medium for marine bacteria, of which the pH value had been controlled to be 7.

[3] = test system: living cells in the concentrate; details: Example 1: sulfuric acid pH 3.5 to 4, 30 min/day, running days 1 to 30
Text: The invention is described concretely with reference to the following Examples, which, however, are not intended to restrict the scope of the invention. In these Examples, the disinfecting effect is represented by the number of living microorganisms, the pressure loss in membrane modules and the consumption of sodium bisulfite (SBS).
Two membrane separation units each having a reverse osmosis membrane of polyamide were driven for seawater desalination through reverse osmosis filtration to produce fresh water. […] In that condition, the two units were continuously driven for 1 month. […] While the units were driven under the condition, the number of the living cells in the concentrate having passed through each unit was counted.

acid-resistant bacteria = test system: acid-resistant bacteria
Experimental: Two membrane separation systems (systems A and B) each comprising a pre-treatment unit and a membrane separation unit having a reverse osmosis membrane module of polyamide were driven for seawater desalination through reverse osmosis filtration to produce fresh water. In these, a culture of the acid-resistant bacteria having been obtained in Reference Example 3 was added to the pre-treated seawater. […] In those conditions, the two systems were continuously driven for 30 days. […] While the systems were driven under the defined conditions, the number of living cells in the concentrate was counted.

[4] = test system: Escherichia coli K12 IFO 3301; details: physiological saline 0.9%
[5] = test system: Acid-resistant Bacteria 1
[6] = test system: Acid-resistant Bacteria 2
[7] = test system: Acid-resistant Bacteria 3
[8] = 500 ppm, 2.5 hr, pH 5.9, 20° C.
[9] = 100 ppm, 2.5 hr, pH 5.1, 20° C.
[10] = 120 ppm, 0.5 hr, pH 4.0, 20° C.
[11] = 120 ppm, 2.5 hr, pH 4.0, 20° C.
[12] = 150 ppm, 0.5 hr, pH 3.3, 20° C.
[13] = 200 ppm, 0.5 hr, pH 2.9, 20° C.
[14] = 300 ppm, 0.5 hr, pH 2.5, 20° C.
[15] = 250 ppm, 0.5 hr, pH 2.6, 20° C.
[16] = 250 ppm, 2.5 hr, pH 2.6, 20° C.
[17] = 300 ppm, 0.5 hr, pH 2.6, 20° C.

Compound: O=S([O-])O.[Na+] [Sodium Bisulfite, sodium bisulfite, reference compound]
- Survival Rate (%) E. coli (E. coli; [8]): 98%
- Survival Rate (%) Suspension of Deposit on Membrane [1, 8]: 90%
- Survival Rate (%) Cells from Deposit on Membrane [2, 8]: 86%

Compound: O=S(=O)(O)O [Sulfuric Acid, sulfuric acid]
- Survival Rate (%) E. coli (E. coli; [9]): 107%
- Survival Rate (%) E. coli (E. coli; [10]): 105%
- Survival Rate (%) E. coli (E. coli; [11]): 93%
- Survival Rate (%) E. coli (E. coli; [12]): <1%
- Survival Rate (%) E. coli (E. coli; [13]): <1%
- Survival Rate (%) E. coli (E. coli; [14]): <1%
- Survival Rate (%) Suspension of Deposit on Membrane [1, 9]: 60%
- Survival Rate (%) Suspension of Deposit on Membrane [1, 10]: 37%
- Survival Rate (%) Suspension of Deposit on Membrane [1, 11]: 15%
- Survival Rate (%) Suspension of Deposit on Membrane [1, 12]: <1%
- Survival Rate (%) Suspension of Deposit on Membrane [1, 13]: <1%
- Survival Rate (%) Suspension of Deposit on Membrane [1, 14]: <1%
- Survival Rate (%) Cells from Deposit on Membrane [2, 9]: 81%
- Survival Rate (%) Cells from Deposit on Membrane [2, 12]: <1%
- Survival Rate (%) Cells from Deposit on Membrane [2, 13]: <1%
- Survival Rate (%) Cells from Deposit on Membrane [2, 14]: <1%
- Number of Colonies Formed (marine bacteria): 3
- Number of Living Cells in the concentrate, compared with the unit not subjected to the sulfuric acid treatment [3]:  1/100 or less
- Number of Living Cells in the concentrate, compared with the unit not subjected to the sulfuric acid treatment ([3]; listed as sulfuric acid): 1/100
- Ratio of Living Microbes in Concentrate (acid-resistant bacteria; pH 2.6, 30 minutes a day): <1
- Ratio of Living Microbes in Concentrate (acid-resistant bacteria; pH 3.5 to 4.0, 30 minutes a day): 100
- Ratio of Living Microbes in Concentrate (acid-resistant bacteria; pH 3.5 to 4.0, 30 minutes a day, plus pH 2.6, 30 minutes a day (once at intervals of 5 days)): <1
- survival rate of the cells ([4]; 10 ppm of sulfuric acid, pH 4.7, 20° C., 2.5 hours): ≥ 90%
- survival rate of the cells ([4]; 50 ppm of sulfuric acid, pH 3.2, 20° C., 0.5 hours): 90%
- survival rate of the cells ([4]; 50 ppm of sulfuric acid, pH 3.2, 20° C., 1 hour): 20%
- survival rate of the cells ([4]; 50 ppm of sulfuric acid, pH 3.2, 20° C., 2.5 hours): ≤ 1%
- survival rate of the cells ([4]; 100 ppm of sulfuric acid, 20° C., 0.5 hours): ≤ 1%
- Survival Rate (%) Acid-resistant Bacteria 1 ([5]; 200 ppm, 1 hr, pH 2.8, 20° C.): 50%
- Survival Rate (%) Acid-resistant Bacteria 1 [5, 15]: 17%
- Survival Rate (%) Acid-resistant Bacteria 1 ([5]; 250 ppm, 1 hr, pH 2.6, 20° C.): <1%
- Survival Rate (%) Acid-resistant Bacteria 1 [5, 16]: <1%
- Survival Rate (%) Acid-resistant Bacteria 1 [5, 17]: 8%
- Survival Rate (%) Acid-resistant Bacteria 1 ([5]; 300 ppm, 1 hr, pH 2.4, 20° C.): <1%
- Survival Rate (%) Acid-resistant Bacteria 2 ([6]; 200 ppm, 1 hr, pH 2.8, 20° C.): 22%
- Survival Rate (%) Acid-resistant Bacteria 2 [6, 15]: 33%
- Survival Rate (%) Acid-resistant Bacteria 2 ([6]; 250 ppm, 1 hr, pH 2.6, 20° C.): 2%
- Survival Rate (%) Acid-resistant Bacteria 2 [6, 16]: <1%
- Survival Rate (%) Acid-resistant Bacteria 2 [6, 17]: 1%
- Survival Rate (%) Acid-resistant Bacteria 2 ([6]; 300 ppm, 1 hr, pH 2.4, 20° C.): <1%
- Survival Rate (%) Acid-resistant Bacteria 3 ([7]; 200 ppm, 1 hr, pH 2.8, 20° C.): <1%
- Survival Rate (%) Acid-resistant Bacteria 3 [7, 15]: 1%
- Survival Rate (%) Acid-resistant Bacteria 3 ([7]; 250 ppm, 1 hr, pH 2.6, 20° C.): <1%
- Survival Rate (%) Acid-resistant Bacteria 3 [7, 16]: <1%
- Survival Rate (%) Acid-resistant Bacteria 3 [7, 17]: <1%
- Survival Rate (%) Acid-resistant Bacteria 3 ([7]; 300 ppm, 1 hr, pH 2.4, 20° C.): <1%

From US6743363B2, “Method of bacteriostasis or disinfection for permselective membrane” (Toray Industries, Inc., priority 1998, dated 2004)
